Results on two compounds are retold here after patent US9592213B2, “Prophylactic and/or therapeutic agent for dysmenorrhea” (National University Corporation Kumamoto University, priority 2009, dated 2017).

In general, Cmax refers to the maximum level reached in the sampled fluid or tissue.

“Also recorded” adds a separate entry of the source.

Data set [1] in a line: Patient history: adverse effects of earlier drugs in study subjects. In kind it is in vivo, human. To be noted: Subject I, administration from Mar. 18, 2010.
In data set [2] the test system is Immortalized human retinal pigment epithelial cell line ARPE-19. Nature of the data set: Example B1: transition of cell morphology from mesenchymal form to epithelial form after TGFβ2 and TNFα. In kind it is cell-based. As to conditions: tranilast 1 μg/ml added 48 hours after TGFβ2 5 ng/ml and TNFα 100 ng/ml, read after 96 hours. Here is the method: Immortalized human retinal pigment epithelial cell line ARPE-19 (ATCC No.: CRL-2302) was disseminated into a 96-well glass plate (EZView Culture Plate, LB Cover Glass Bottom, 96 wells, Iwaki) at 1×10^4 cells/well followed by culturing at 37° C. in a 5% CO2 environment. After 5 days, 150 μl aliquots each of DMEM-F12 (serum-free, Sigma-Aldrich) medium supplemented by 5 ng/ml of TGFβ2 and 100 ng/ml of TNFα were prepared and used to replace the original medium in the wells and cultured at 37° C. in a 5% CO2 environment.
After 48 hours, the plate was removed from the incubator followed by the addition of tranilast (1 μg/ml) and culturing at 37° C. in a 5% CO2 environment. After 96 hours, the plate was washed with PBS and the cells were fixed for 30 minutes with 4% paraformaldehyde (Wako), and after washing with PBS, were stained for 1 hour with F-actin (Alexa Fluor 568 Phalloidin, Invitrogen) and nuclei (Hoechst 33342, Invitrogen) followed by washing with PBS and then immediately photographing using a fluorescence microscope (Keyence) at a magnification factor of 40×.

For data set [3] the following is noted: cited from earlier work.
The nature of data set [4]: Clinical study of therapeutic effect of oral administration of tranilast in dysmenorrhea patients. In kind it is in vivo, human. Here is the method: Subject A was given 100 mg of tranilast three times a day by oral administration (300 mg per day, divided three times daily) daily for about six months starting on Sep. 1, 2008.
Menstrual pain was measured according to a numerical rating scale (NRS). In the NRS, the patient was asked to evaluate and record the degree of pain by themself by judging the degree of pain according to 11 levels ranging from level 0 indicating the absence of pain to level 10 indicating maximum pain. Menstrual blood loss was evaluated according to 5 levels ranging from level 0 indicating the absence of blood loss up to level 4 as blood loss increased.
The term “average” in the graphs indicates a value obtained by dividing the total sum of the pain level for each menstrual period by the number of days on which pain was felt.
The term “max” indicates a value of the day when the most intense pain was felt during each menstrual period.
Pain during menstruation was evaluated by the record made for each day by the patient according the 11 levels from level 0 indicating the absence of pain to level 10 indicating maximum pain in the same manner as Subjects A and B, using the NRS method.
The average values and maximum values of NRS scores indicating the intensity of pain during each menstrual period were derived, and the values were compared between the menstrual period at the start of administration and the last menstrual period during the administration period as shown in graphs of FIGS. 8A and 9A. In addition, the degrees of decrease in average values and maximum values for menstrual pain during the last menstrual period relative to the first menstrual period at the start of administration were represented as improvement rates, and are shown in FIGS. 8B and 9B.
Moreover, Subjects A, C, D, E, F and G, but excluding Subject B, underwent examinations at the facility conducting the clinical study at roughly one month intervals during the administration period, and were interviewed by a specialist in the department of gynecology. Interview findings before the start of administration and interview findings at the time of their final visit were compared and are shown in FIG. 10.

The conditions of data set [5]: continuous infusion for 3.5 days at 7.5 mg/kg, normal adult; cited from earlier work.
The subject of a further data set is EM-E6/E7/hTERT cells. Nature of the data set: Example B2: western blotting of fibronectin and N-cadherin expression in endometrial epithelial cells. In kind it is cell-based. As to conditions: tranilast 320 μM, 80 μM, 20 μM with TGFβ2 5 ng/ml, TNFα 100 ng/ml or both, 48 hours. Here is the method: Cell line EM-E6/E7/hTERT cells (EM) derived from endometrial epithelium were disseminated in a 6-well glass plate (EZView Culture Plate, LB Cover Glass Bottom, 6 wells, Iwaki) at 1×10^5 cells/well, followed by culturing for 2 days at 37° C. in an environment having a carbon dioxide concentration of 5% in DMEM/F12 medium and in the presence of 10% serum, and then culturing for 3 days after replacing the medium with serum-free DMEM/F12 medium.
Subsequently, tranilast (320 μM, 80 μM, 20 μM) was added to medium containing TGFβ2 at 5 ng/ml, TNFα at 100 ng/ml or both followed by replacing the medium. Protein was recovered 48 hours after having replaced the medium with the medium containing TGFβ2 or TNFα, and expression levels of fibronectin and N-cadherin were compared by western blotting.
Anti-fibronectin antibody (clone ID: F14, Epitomics) and anti-N-cadherin antibody (clone ID: 32/N-cadherin, BD Transduction Laboratories) were used for the antibodies.
(In general: Immunoblotting shows a protein as a band on a membrane.)

Where [6] appears, read: Subject A, organic dysmenorrhea, 100 mg three times a day orally, about six months.
[7] abbreviates: Subject B, August menstrual period, 100 mg/day.
Setting [8] is: Subject B, September menstrual period, 200 mg/day.
The mark [9] stands for this setting: Subject B, after start of administration.
The mark [10] stands for this setting: Subject B, functional dysmenorrhea, 100-200 mg/day orally, about six months.

For `C[C@]12CCC3=C4CCC(=O)C=C4CC[C@H]3[C@@H]1CC[C@@]2(O)CC#N` [dienogest], the “adverse effect in patient history leading to discontinuation” value in data set [1] is listed as “persistent abnormal genital bleeding”.
For the compound `COc1ccc(C=CC(=O)Nc2ccccc2C(=O)O)cc1OC` [Tranilast, N-(3,4-dimethoxycinnamoyl) anthranilic acid], in data set [2], the cell morphology result is on record as “exhibited an epithelial form”; the “foci formed after TGFβ2 and TNFα” value was “alleviated”. The “solubility in 1,4-dioxane” value in data set [3] (1,4-dioxane) was “soluble”. In data set [3] (N,N-dimethylformamide), the “solubility in N,N-dimethylformamide” value was “freely soluble”. Besides, the “solubility in diethyl ether” value in data set [3] (diethyl ether) is given as “very slightly soluble”. Besides, in data set [3] (ethanol), the solubility in ethanol result is “slightly soluble”. Besides, in data set [3] (water), the solubility in water entry is “practically insoluble”. In addition, in data set [4] (setting [6]), the “lower abdominal pain and lower back pain during menstruation (NRS scores)” value was “trend of decrease; also recorded: effects of alleviating lower abdominal pain and lower back pain were observed”; the menstrual blood loss result is given as “trend of decrease”. Besides, in data set [4] (Subject B), the “adverse side effects from taking tranilast” value is reported as “no adverse side effects”. In data set [4] (setting [7]), the menstrual blood loss result is recorded as “remained high” and the menstrual pain entry is given as “less menstrual pain”. Further, in data set [4] (Subject B, December, 100 mg/day), the “pain and blood loss sensed by patient” value was “reduced pain and blood loss”. Besides, in data set [4] (setting [8]), the menstrual blood loss entry is “Reduction” and the menstrual pain result is listed as “Reduction”. Further, in data set [4] (setting [9]), the duration of menstruation result is listed as “decreased significantly” and the symptoms of menorrhagia result is “clearly improved”. Moreover, in data set [4] (setting [10]), the “lower abdominal pain and lower back pain during menstruation (NRS scores)” value was “clearly decrease; also recorded: decrease significantly”; the menstrual blood loss result is listed as “clearly decrease; also recorded: decreased significantly”. The “pain at menstrual period” value in data set [4] (Subject H, organic dysmenorrhea, 100 mg three times per day orally, roughly one month) was “Pain diminished”. Moreover, the need for analgesic entry in data set [4] (Subject H, roughly one month after beginning administration) is reported as “no longer need to take an analgesic”. Moreover, in data set [4] (Subject I, examination Jun. 4, 2010), the “menstrual pain and chronic pelvic pain when not menstruating (interview findings)” value was “diminished and no longer interfered with their job”. Further, the “pain at first menstrual period after beginning administration” value in data set [4] (Subject I, organic dysmenorrhea, 100 mg three times per day orally) was “the pain diminished”. Further, in data set [4] (Subject I, before: multiple days with four analgesic tablets per day), the “analgesic use at first menstrual period after beginning administration” value was “one tablet of analgesic per day for 3 days”. Also, in data set [4] (Subjects A, B, C, D, E, F and G), the “pain during menstruation, last menstrual period of administration vs menstrual period at start (NRS average and maximum)” value was “prominent decreases”. Besides, the “interview findings by gynecological specialist on menstrual pain, final visit vs before start” value in data set [4] (Subjects A, C, D, E and F) is on record as “menstrual pain diminished”. For the same compound, the Cmax in data set [5] was 2200 ng/mL. Moreover, in the data set with EM-E6/E7/hTERT cells, the “expression level of N-cadherin” value is reported as “inhibited the expression” and the “expression level of fibronectin” value is on record as “inhibited the expression”.
